Tests used:
[1] = system: alkaline phosphatase; assay: Quantum yield determination of dioxetane chemiluminescence after alkaline phosphatase addition; format: biochemical; settings: 0.1M DEA, pH, 25° C., dioxetane concentration 3.7 × 10^−7M to 6 × 10^−6M
Description: Various dioxetanes within the scope of this invention have been prepared and tested for essential properties, such as quantum yield (performed by an independent laboratory according to the procedure listed below), T½ and the emission wavelength maxima. These dioxetanes are identified by number, and in the tables following after the number, the identity of the substituent on the adamantyl ring, if any followed by the identity of the Z substituent is given. In the compounds tested, X is phosphate. Values for quantum yield and T½ are obtained both for the dioxetane along in 0.1 molar DEA, and in the presence of an enhancement agent, Sapphire II.
[…] […] […] The tube was then placed in MGM Optocomp® I luminometer and the light signal was measured at 1 sec integration times. […] The total counts for the dioxetane were determined from the intensity data. Total counts observed for a given concentration of dioxetane is the product of Photon Detection Efficiency (PDE) of the luminometer, the quantum yield of dioxetane and the number of molecules capable of emitting light (concentration of dephosphorylated dioxetanes). PDE for the MGM Optocomp® I luminometer was determined to be 2.56×10^−3, measured with a Biolink® absolute standard and utilizing the known spectral response of the luminometer's PMT and the known emission spectrum of the dioxetanes. The quantum yield is calculated by dividing the total counts measured by the PDE and the concentration of the dioxetane.

[2] = system: alkaline phosphatase; assay: Chemiluminescence emission wavelength maximum (Spex Fluorolog); format: biochemical; settings: for μL em: 0.1M DEA, pH, 25° C., dioxetane concentration 3.7 × 10^−7M to 6 × 10^−6M; for Emission Max, nm, +BDMQ: in the presence of BDMQ; for Emission Max, nm, No Addition: no enhancement agent; for Emission Max, nm, On Nylon: on a nylon membrane
Description: […] The solution was equilibrated 5 minutes in a Spex Fluorolog Fluorimeter and then scanned 5 times at 0.5 sec/nm for chemiluminescent emission. The chemiluminescence emission wavelength maximum was recorded.

COC1(c2cccc(OP(=O)(O)O)c2)OOC12C1CC3CC(C1)CC2C3 (stereo not drawn) [AMPPD, 3-(2′-spiroadamantane)4-methoxy-4-(3″-phosphoryloxy)phenyl-1,2-dioxetane, reference compound]
Quantum Yield [1]: 1.5 × 10^−5 | Quantum Yield ([1]; second table): 1.5 × 10^−5 | μL em [2]: 477 | μL em ([2]; second table): 477

COC1(c2cccc(OP(=O)(O)O)c2)OOC12C1CC3CC2CC(Cl)(C3)C1 (stereo not drawn) [CSPD, reference compound]
Quantum Yield [1]: 5.2 × 10^−5 | Quantum Yield ([1]; second table): 5.2 × 10^−5 | μL em [2]: 475 | μL em ([2]; second table): 475

COC1(c2cc(Cl)cc(OP(=O)([O-])[O][NaH2-2])c2)OOC12C1CC3CC(C1)CC2C3.[Na+] (stereo not drawn) [Dioxetane 128-70, Disodium 3-chloro-5-(methoxyspiro(1,2-dioxetane-3,2′-tricylo[3.3.1.1^3,7]-decan]-4-yl)-1-phenyl Phosphate]
Quantum Yield [1]: 1.4 × 10^−4 | Quantum Yield ([1]; second table): 1.4 × 10^−4 | μL em [2]: 471 | Emission Max, nm, +BDMQ [2]: 463 nm | Emission Max, nm, No Addition [2]: 471 nm | Emission Max, nm, On Nylon [2]: 461 nm | μL em ([2]; second table): 471

COC1(c2cc(Cl)cc(OP(=O)([O-])[O][NaH2-2])c2)OOC12C1CC3CC2CC(Cl)(C3)C1.[Na+] (stereo not drawn) [Dioxetane 128-87, Disodium 3-chloro-5-(methoxyspiro(1,2-dioxetane-3,2′-(5-chloro-)tricyclo-[3.3.1.1^3,7]-decan]-4-yl)-1-phenyl Phosphate]
Quantum Yield [1]: 1.2 × 10^−4 | Quantum Yield ([1]; second table): 1.2 × 10^−4 | μL em [2]: 470 | Emission Max, nm, +BDMQ [2]: 464 nm | Emission Max, nm, No Addition [2]: 470 nm | Emission Max, nm, On Nylon [2]: 459 nm | μL em ([2]; second table): 470

COc1cc(OP(=O)([O-])[O][NaH2-2])cc(C2(OC)OOC23C2CC4CC3CC(Cl)(C4)C2)c1.[Na+] (stereo not drawn) [Dioxetane 140-17, Disodium 5-methoxy-3-(methoxyspiro(1,2-dioxetane-3,2′-(5-chloro-)tricyclo-[3.3.1.1^3,7]-decan]-4-yl)-1-phenyl Phosphate]
Quantum Yield [1]: 2.3 × 10^−5 | Quantum Yield ([1]; second table): 2.3 × 10^−5 | μL em [2]: 475 | Emission Max, nm, +BDMQ [2]: 464 nm | Emission Max, nm, No Addition [2]: 475 nm | Emission Max, nm, On Nylon [2]: 463 nm | μL em ([2]; second table): 475

COc1cc(OP(=O)([O-])[O][NaH2-2])cc(C2(OC)OOC23C2CC4CC(C2)CC3C4)c1.[Na+] (stereo not drawn) [Dioxetane 140-20, Disodium 5-methoxy-3-(methoxyspiro(1,2-dioxetane-3,2′-tricyclo[3.3.1.1^3,7]-decan]-4-yl)-1-phenyl Phosphate]
Quantum Yield [1]: 1.5 × 10^−5 | Quantum Yield ([1]; second table): 1.5 × 10^−5 | μL em [2]: 476 | Emission Max, nm, +BDMQ [2]: 466 nm | Emission Max, nm, No Addition [2]: 476 nm | Emission Max, nm, On Nylon [2]: 461 nm | μL em ([2]; second table): 476
